In publication PMC9120017, “Inhibition mechanism of the chloride channel TMEM16A by the pore blocker 1PBC” (Nature Communications, 2022):
pIC50: −log10 of the molar value. Read-outs that look alike come from different tables or passages of the source.

Biological target: T1, wild-type mouse TMEM16A (Mus musculus, UniProt Q8BHY3)
T1 construct: expressed in transfected cells; host or cells: HEK293T
T1 sequence (Q8BHY3 1-960): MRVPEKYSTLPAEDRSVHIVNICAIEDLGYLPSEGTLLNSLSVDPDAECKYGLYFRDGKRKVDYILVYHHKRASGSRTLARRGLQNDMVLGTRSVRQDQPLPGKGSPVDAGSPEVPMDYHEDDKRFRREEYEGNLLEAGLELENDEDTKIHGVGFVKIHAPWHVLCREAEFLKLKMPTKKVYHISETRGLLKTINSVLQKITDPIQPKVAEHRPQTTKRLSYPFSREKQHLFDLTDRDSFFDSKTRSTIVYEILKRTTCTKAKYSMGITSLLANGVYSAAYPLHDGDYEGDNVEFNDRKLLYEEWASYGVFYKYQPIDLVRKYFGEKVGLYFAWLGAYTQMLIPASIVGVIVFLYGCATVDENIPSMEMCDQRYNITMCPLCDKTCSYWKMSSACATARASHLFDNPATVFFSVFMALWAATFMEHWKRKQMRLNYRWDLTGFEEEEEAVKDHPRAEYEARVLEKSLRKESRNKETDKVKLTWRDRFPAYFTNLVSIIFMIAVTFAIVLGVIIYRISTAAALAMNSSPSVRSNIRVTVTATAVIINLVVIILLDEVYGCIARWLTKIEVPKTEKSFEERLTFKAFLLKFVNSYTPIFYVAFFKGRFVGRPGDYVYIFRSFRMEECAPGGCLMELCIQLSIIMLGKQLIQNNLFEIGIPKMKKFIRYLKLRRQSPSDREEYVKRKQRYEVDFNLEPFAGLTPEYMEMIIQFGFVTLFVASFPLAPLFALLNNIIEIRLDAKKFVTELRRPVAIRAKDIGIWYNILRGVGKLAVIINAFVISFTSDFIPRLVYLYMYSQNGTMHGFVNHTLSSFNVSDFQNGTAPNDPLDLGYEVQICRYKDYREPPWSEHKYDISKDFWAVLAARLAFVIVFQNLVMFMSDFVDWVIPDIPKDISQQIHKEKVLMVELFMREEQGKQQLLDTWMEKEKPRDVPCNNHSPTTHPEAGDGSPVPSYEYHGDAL
Assay: Inside-out patch recording of 1PBC block, wild-type TMEM16A
Format: cell-based
Conditions: for remaining activity at 1 µM / remaining activity at 3 µM: read-out: I/Imax
Protocol: HEK293T cells (ATCC CRL-1573) were maintained in Dulbecco’s modified Eagle’s medium (DMEM; Sigma-Aldrich) supplemented with 10 U ml^−1 penicillin, 0.1 mg ml^−1 streptomycin (Sigma-Aldrich), 2 mM L-glutamine (Sigma-Aldrich), and 10% FBS (Sigma-Aldrich) in a humidified atmosphere containing 5% CO2 at 37 °C. HEK293S GnTI^− cells (ATCC CRL-3022) were maintained in HyClone HyCell TransFx-H medium (GE Healthcare) supplemented with 10 U ml^−1 penicillin, 0.1 mg ml^−1 streptomycin, 4 mM L-glutamine, 0.15% poloxamer 188 (Sigma-Aldrich), and 1% FBS in an atmosphere containing 5% CO2 at 185 rpm at 37 °C. The ac splice variant of mouse TMEM16A (UniProt ID: Q8BHY3), mouse TMEM16B (UniProt ID: Q8CFW1), or mouse TMEM16F (UniProt ID: Q6P9J9) bearing a 3C cleavage site, a Venus YFP, a Myc tag, and a Streptavidin-binding peptide (SBP) downstream of the open reading frame in a modified pcDNA3.1 vector (Invitrogen) were used as described previously[21],[31]. Mutations were introduced using a modified QuikChange method[58] and were verified by sequencing.
HEK293T cells were transfected with 3–4 μg DNA per 6 cm Petri dish using the calcium phosphate co-precipitation method and were used within 24–96 h after transfection. Recordings were performed on inside-out patches excised from HEK293T cells expressing the construct of interest. Patch pipettes were pulled from borosilicate glass capillaries (O.D. 1.5 mm, I.D. 0.86 mm, Sutter Instrument) and were fire-polished with a microforge (Narishige) before use. Pipette resistance was typically 3–8 MΩ when filled with the recording solutions detailed below. Seal resistance was typically 4 GΩ or higher. Voltage-clamp recordings were made using Axopatch 200B, Digidata 1550, and Clampex 10.7 (Molecular Devices). Analog signals were filtered with the in-built 4-pole Bessel filter at 10 kHz and were digitized at 20 kHz. Solution exchange was achieved using a gravity-fed system through a theta glass pipette mounted on an ultra-fast piezo-driven stepper (Siskiyou). […] All recordings were performed at 20 °C.
A symmetrical ionic condition was used throughout. Stock solution with Ca^2+-EGTA contained 150 mM NaCl, 5.99 mM Ca(OH)2, 5 mM EGTA, and 10 mM HEPES at pH 7.40. Stock solution with EGTA contained 150 mM NaCl, 5 mM EGTA, and 10 mM HEPES at pH 7.40. Free Ca^2+ concentrations were adjusted by mixing the stock solutions at the required ratios calculated using the WEBMAXC program (http://web.stanford.edu/~cpatton/webmaxcS.htm). Patch pipettes were filled with the stock solution with Ca^2+-EGTA, which has a free Ca^2+ concentration of 1 mM. 1PBC (ChemBridge) stock was reconstituted in anhydrous DMSO (Sigma-Aldrich) at 100 mM and stored at −20 °C. Working solutions with 1PBC were prepared by serial dilution. Unless otherwise stated, experiments were performed at a saturating Ca^2+ concentration as shown in Supplementary Table 1 and the primary data were corrected for current rundown as described previously[21],[25].
Concentration-response relations, obtained from the ratio of the I-V plots before and after the application of the blocker, were fitted to the Hill equation,1 I/Imax=1/1+IC50/[blocker]^h where I/Imax is the normalized current responses, IC50 defines the concentration at which inhibition is at its half-maximum, and h is the Hill coefficient.

## N#Cc1c(C(F)(F)F)cc(O)n2c1nc1ccccc12 [1PBC]
  Hill coefficient for 1PBC block: 1
0 mV, 2 µM Ca2+
  pIC50: 5.36
0.4 μM Ca2+, 80 mV, empirical Hill fit of data scaled to open probability
  pIC50: 5.49
0.8 μM Ca2+, 80 mV, empirical Hill fit of data scaled to open probability
  pIC50: 5.67
1 µM 1PBC, 0 mV, 2 µM Ca2+
  Steady-state current (normalized): 0.001783
  remaining activity at 1 µM: 73%
1 µM 1PBC, 400 nM Ca2+, 80 mV
  I/Imax scaled to open probability: 0.3757
1 µM 1PBC, 800 nM Ca2+, 80 mV
  I/Imax scaled to open probability: 0.4419
1 µM 1PBC, 2 µM Ca2+, 80 mV
  I/Imax scaled to open probability: 0.5218
1 µM 1PBC, 20 mV, 2 µM Ca2+
  Steady-state current (normalized): 0.134
  remaining activity at 1 µM: 68.9%
1 µM 1PBC, 40 mV, 2 µM Ca2+
  Steady-state current (normalized): 0.2463
  remaining activity at 1 µM: 65.3%
1 µM 1PBC, 60 mV, 2 µM Ca2+
  Steady-state current (normalized): 0.3454
  remaining activity at 1 µM: 62.6%
1 µM 1PBC, 80 mV, 2 µM Ca2+
  Steady-state current (normalized): 0.4256
  remaining activity at 1 µM: 60.1%
1 µM 1PBC, 100 mV, 2 µM Ca2+
  Steady-state current (normalized): 0.5103
  remaining activity at 1 µM: 60.1%
1 µM 1PBC, 120 mV, 2 µM Ca2+
  Steady-state current (normalized): 0.5951
  remaining activity at 1 µM: 61.1%
1 µM 1PBC, 140 mV, 2 µM Ca2+
  Steady-state current (normalized): 0.7035
  remaining activity at 1 µM: 64.7%
1 µM 1PBC, -20 mV, 2 µM Ca2+
  Steady-state current (normalized): -0.1486
  remaining activity at 1 µM: 77.2%
1 µM 1PBC, -40 mV, 2 µM Ca2+
  Steady-state current (normalized): -0.3126
  remaining activity at 1 µM: 80.5%
1 µM 1PBC, -60 mV, 2 µM Ca2+
  Steady-state current (normalized): -0.4807
  remaining activity at 1 µM: 83%
1 µM 1PBC, -80 mV, 2 µM Ca2+
  Steady-state current (normalized): -0.661
  remaining activity at 1 µM: 86.1%
1 µM 1PBC, -100 mV, 2 µM Ca2+
  Steady-state current (normalized): -0.836
  remaining activity at 1 µM: 88%
1 µM 1PBC, -120 mV, 2 µM Ca2+
  Steady-state current (normalized): -1.004
  remaining activity at 1 µM: 89.7%
1 µM 1PBC, -140 mV, 2 µM Ca2+
  Steady-state current (normalized): -1.145
  remaining activity at 1 µM: 89.1%
2 μM Ca2+, 80 mV, empirical Hill fit of data scaled to open probability
  pIC50: 5.71
3 µM 1PBC, 0 mV, 2 µM Ca2+
  Steady-state current (normalized): 0.001316
  remaining activity at 3 µM: 53.9%
3 µM 1PBC, 400 nM Ca2+, 80 mV
  I/Imax scaled to open probability: 0.2553
3 µM 1PBC, 800 nM Ca2+, 80 mV
  I/Imax scaled to open probability: 0.2864
3 µM 1PBC, 2 µM Ca2+, 80 mV
  I/Imax scaled to open probability: 0.3306
3 µM 1PBC, 20 mV, 2 µM Ca2+
  Steady-state current (normalized): 0.0952
  remaining activity at 3 µM: 48.9%
3 µM 1PBC, 40 mV, 2 µM Ca2+
  Steady-state current (normalized): 0.1678
  remaining activity at 3 µM: 44.5%
